US20170050957A1, “4-AMINO-6-(HETEROCYCLIC)PICOLINATES AND 6-AMINO-2-(HETEROCYCLIC)PYRIMIDINE-4-CARBOXYLATES AND THEIR USE AS HERBICIDES” (Dow AgroSciences LLC, priority 2013, published 2017)
Like-named read-outs stand apart in the source and are kept apart here.

How the values were obtained:
[1] = tested on: Key Grass and Sedge Weeds as well as Grass Crops; assay: Post-emergent Test II herbicidal activity (Table 16); format: in vivo; conditions: post-emergence, 336 h, 14 days after application; for pest or weed control at 35 g/ha: 35 g ai/ha; for pest or weed control at 70 g/ha: 70 g ai/ha; for pest or weed control at 140 g/ha: 140 g ai/ha
In short: (§1)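 Plants grown in greenhouse (~15 h photoperiod, 23-29 °C day, 22-28 °C night) to first or second true leaf stage, then sprayed post-emergence at 187 L/ha with a high rate and 1/2×, 1/4×, 1/8× and 1/16× dilutions. Injury scored visually after 14 d, 0-100% versus untreated plants.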

[2] = tested on: Key Broadleaf Weed and Crop Species; assay: Post-emergent Test II herbicidal activity (Table 15); format: in vivo; conditions: post-emergence, 336 h, 14 d; for pest or weed control at 35 g/ha: 35 g ai/ha; for pest or weed control at 70 g/ha: 70 g ai/ha; for pest or weed control at 140 g/ha: 140 g ai/ha
In short: as §1

[3] = Cyperus esculentus, yellow nutsedge (Cyperus esculentus), read-out: Visual Growth Reduction (%) 14 Days After Application CYPES
[4] = Echinochloa crus-galli, barnyardgrass (Echinochloa crus-galli), read-out: Visual Growth Reduction (%) 14 Days After Application ECHCG
[5] = Oryza sativa, rice (Oryza sativa), read-out: Visual Growth Reduction (%) 14 Days After Application ORYSA
[6] = Setaria faberi, giant foxtail (Setaria faberi), read-out: Visual Growth Reduction (%) 14 Days After Application SETFA
[7] = Triticum aestivum, wheat, spring (Triticum aestivum), read-out: Visual Growth Reduction (%) 14 Days After Application TRZAS
[8] = Zea mays, maize, corn (Zea mays), read-out: Visual Growth Reduction (%) 14 Days After Application ZEAMX
[9] = Abutilon theophrasti, velvetleaf (Abutilon theophrasti), read-out: Visual Growth Reduction (%) 14 Days After Application, ABUTH
[10] = Amaranthus retroflexus, redroot pigweed (Amaranthus retroflexus), read-out: Visual Growth Reduction (%) 14 Days After Application, AMARE
[11] = Brassica napus, oilseed rape, canola (Brassica napus), read-out: Visual Growth Reduction (%) 14 Days After Application, BRSNN
[12] = Chenopodium album, lambsquarters (Chenopodium album), read-out: Visual Growth Reduction (%) 14 Days After Application, CHEAL
[13] = Euphorbia heterophylla, wild poinsettia (Euphorbia heterophylla), read-out: Visual Growth Reduction (%) 14 Days After Application, EPHHL
[14] = Helianthus annuus, sunflower (Helianthus annuus), read-out: Visual Growth Reduction (%) 14 Days After Application, HELAN

Compound `Cc1c(-c2ccc3ccsc3c2)nc(C(=O)O)c(Cl)c1N` [Compound 3.19] has a melting point of 157 to 162 °C, a pest or weed control at 35 g/ha [1, 3] of 0 to 29% and a pest or weed control at 70 g/ha [1, 3] of 0 to 29%. The pest or weed control at 140 g/ha [1, 3] was 0 to 29%, the pest or weed control at 35 g/ha [1, 4] was 0 to 29% and the pest or weed control at 70 g/ha [1, 4] was 0 to 29%. For the same compound, the pest or weed control at 140 g/ha [1, 4] was 0 to 29%, the pest or weed control at 35 g/ha [1, 5] was 0 to 29% and the pest or weed control at 70 g/ha [1, 5] was 0 to 29%. It also gave a pest or weed control at 140 g/ha [1, 5] of 0 to 29%, a pest or weed control at 35 g/ha [1, 6] of 0 to 29% and a pest or weed control at 70 g/ha [1, 6] of 0 to 29%. For the same compound, the pest or weed control at 140 g/ha [1, 6] was 0 to 29%, the pest or weed control at 35 g/ha [1, 7] was 0 to 29% and the pest or weed control at 70 g/ha [1, 7] was 0 to 29%. The pest or weed control at 140 g/ha [1, 7] was 0 to 29%, the pest or weed control at 35 g/ha [1, 8] was 0 to 29% and the pest or weed control at 70 g/ha [1, 8] was 0 to 29%. It also gave a pest or weed control at 140 g/ha [1, 8] of 0 to 29%, a pest or weed control at 35 g/ha [2, 9] of 0 to 29% and a pest or weed control at 70 g/ha [2, 9] of 0 to 29%. For the same compound, the pest or weed control at 140 g/ha [2, 9] was 60 to 74%, the pest or weed control at 35 g/ha [2, 10] was 60 to 74% and the pest or weed control at 70 g/ha [2, 10] was 95 to 100%. The pest or weed control at 140 g/ha [2, 10] was 75 to 84%, the pest or weed control at 35 g/ha [2, 11] was 0 to 29% and the pest or weed control at 70 g/ha [2, 11] was 0 to 29%. It also gave a pest or weed control at 140 g/ha [2, 11] of 0 to 29%, a pest or weed control at 35 g/ha [2, 12] of 60 to 74% and a pest or weed control at 70 g/ha [2, 12] of 60 to 74%. It also gave a pest or weed control at 140 g/ha [2, 12] of 75 to 84%, a pest or weed control at 35 g/ha [2, 13] of 0 to 29% and a pest or weed control at 70 g/ha [2, 13] of 0 to 29%. The pest or weed control at 140 g/ha [2, 13] was 0 to 29%, the pest or weed control at 35 g/ha [2, 14] was 85 to 94% and the pest or weed control at 70 g/ha [2, 14] was 85 to 94%. It also gave a pest or weed control at 140 g/ha [2, 14] of 85 to 94%.

With `COC(=O)c1nc(-c2ccc3sccc3c2)nc(N)c1OC` [Compound 3.08] the melting point was 125 to 127 °C, the pest or weed control at 35 g/ha [1, 3] was 0 to 29% and the pest or weed control at 70 g/ha [1, 3] was 0 to 29%. It also gave a pest or weed control at 140 g/ha [1, 3] of 30 to 44%, a pest or weed control at 35 g/ha [1, 4] of 0 to 29% and a pest or weed control at 70 g/ha [1, 4] of 0 to 29%. It also gave a pest or weed control at 140 g/ha [1, 4] of 75 to 84%, a pest or weed control at 35 g/ha [1, 5] of 0 to 29% and a pest or weed control at 70 g/ha [1, 5] of 0 to 29%. It also gave a pest or weed control at 140 g/ha [1, 5] of 0 to 29%, a pest or weed control at 35 g/ha [1, 6] of 0 to 29% and a pest or weed control at 70 g/ha [1, 6] of 0 to 29%. For the same compound, the pest or weed control at 140 g/ha [1, 6] was 0 to 29%, the pest or weed control at 35 g/ha [1, 7] was 45 to 59% and the pest or weed control at 70 g/ha [1, 7] was 60 to 74%. It also gave a pest or weed control at 140 g/ha [1, 7] of 60 to 74%, a pest or weed control at 35 g/ha [1, 8] of 30 to 44% and a pest or weed control at 70 g/ha [1, 8] of 60 to 74%. For the same compound, the pest or weed control at 140 g/ha [1, 8] was 75 to 84%, the pest or weed control at 35 g/ha [2, 9] was 0 to 29% and the pest or weed control at 70 g/ha [2, 9] was 30 to 44%. For the same compound, the pest or weed control at 140 g/ha [2, 9] was 30 to 44%, the pest or weed control at 35 g/ha [2, 10] was 0 to 29% and the pest or weed control at 70 g/ha [2, 10] was 30 to 44%. The pest or weed control at 140 g/ha [2, 10] was 60 to 74%, the pest or weed control at 35 g/ha [2, 11] was 0 to 29% and the pest or weed control at 70 g/ha [2, 11] was 0 to 29%. The pest or weed control at 140 g/ha [2, 11] was 30 to 44%, the pest or weed control at 35 g/ha [2, 12] was 85 to 94% and the pest or weed control at 70 g/ha [2, 12] was 85 to 94%. The pest or weed control at 140 g/ha [2, 12] was 85 to 94%, the pest or weed control at 35 g/ha [2, 13] was 60 to 74% and the pest or weed control at 70 g/ha [2, 13] was 75 to 84%. The pest or weed control at 140 g/ha [2, 13] was 85 to 94%, the pest or weed control at 35 g/ha [2, 14] was 60 to 74% and the pest or weed control at 70 g/ha [2, 14] was 75 to 84%. For the same compound, the pest or weed control at 140 g/ha [2, 14] was 85 to 94%.
